We go through 18 compounds from the supplement of paper PMC7840683.

The subject of the test is HepaRG. The test is described as follows: LDH release cytotoxicity, % of total lysis control; higher = more cytotoxic. To be noted: 48 h. A digest of the protocol: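 Duplicate wells of single-lot HepaRG cells, grown on collagen I-coated 96-well plates, received eight-point half-log series of test chemicals with 100 µM as the top concentration. Exposure lasted 48 h in serum-free induction medium with 0.5% DMSO, while total lysis wells received 0.1% Triton X. Resorufin fluorescence (CytoTox-ONE, Tecan Safire) was used to quantify LDH leaked into 50 µL of spent medium. Values for percent cytotoxicity were normalized to on-plate vehicle and total lysis controls and averaged across the duplicates.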
(LDH in the medium is a marker of cell lysis.)

± gives the standard deviation of the averaged measurements.

As for `COc1nn(CSP(=S)(OC)OC)c(=O)s1` [Methidathion], the LDH release cytotoxicity by setting is: (0.03162 µM) 1.04 ± 0.16%; (0.1 µM) -1.02 ± 0.18%; (0.3162278 µM) -0.883 ± 0.25%; (1 µM) -0.575 ± 0.076%; (3.16228 µM) 0.0624 ± 0.29%; (10 µM) 1.08 ± 1.4%. For the same compound, the LDH release cytotoxicity (31.6228 µM) turned out to be 0.461 ± 1% and the LDH release cytotoxicity (100 µM) amounted to 1.33 ± 0.11%.
With `Nc1nc2nc[nH]c2c(=S)[nH]1` [6-Thioguanine], the LDH release cytotoxicity is 1.04 ± 0.63% (0.031623 µM); -2.6 ± 0.7% (0.1 µM); -2.87 ± 0.84% (0.316228 µM); -2.88 ± 0.19% (1 µM); -2.5 ± 0.32% (3.16228 µM); -2.64 ± 0.061% (10 µM). The LDH release cytotoxicity reads like this: (31.6228 µM) -1.86 ± 0.074%; (100 µM) -0.0388 ± 0.38%.
Turning to `O=Cc1ccccc1C=O` [1,2-Benzenedicarboxaldehyde], the LDH release cytotoxicity is, setting by setting: (0.03162 µM) -1.01 ± 0.34%; (0.1 µM) -0.945 ± 0.21%; (0.3162278 µM) -1.43 ± 0.23%; (1 µM) -0.52 ± 1.3%; (3.16228 µM) -0.768 ± 0.29%; (10 µM) -0.0584 ± 0.28%. Besides, the LDH release cytotoxicity turned out to be 1.36 ± 0.23% (31.6228 µM) and 7.96 ± 1.3% (100 µM).
For the compound `Cc1ccc(S(=O)(=O)O)cc1C` [Sodium xylenesulfonate], the LDH release cytotoxicity is -0.646 ± 0.56% (0.03162 µM); -1.44 ± 0.33% (0.1 µM); -1.14 ± 1.1% (0.3162278 µM); -1.21 ± 0.25% (1 µM); -1.1 ± 0.39% (3.16228 µM); -1.23 ± 0.36% (10 µM). Further, the LDH release cytotoxicity was -1.25 ± 0.27% (31.6228 µM) and 1.23 ± 0.65% (100 µM).
Take `O=c1[nH]sc2ccccc12` [1,2-Benzisothiazolin-3-one]: the LDH release cytotoxicity was -0.0461 ± 1.4% (0.0327296 µM); -0.556 ± 0.24% (0.1035 µM); -0.331 ± 0.21% (0.327296 µM); -0.299 ± 0.034% (1.035 µM); -0.612 ± 0.23% (3.27296 µM); -0.701 ± 0.032% (10.35 µM). For the same compound, the LDH release cytotoxicity (32.729574 µM) was determined as 0.567 ± 0.56% and the LDH release cytotoxicity (103.5 µM) came out at 2.85 ± 2.2%.
`CCCOc1ccc(S(=O)(=O)N2CCN(CC)CC2)cc1-c1nc2c(CC)n(Cc3ccccn3)nc2c(=O)[nH]1`: the LDH release cytotoxicity (0.03162 µM) was -0.95 ± 0.39%; the LDH release cytotoxicity (0.1 µM) is -1.66 ± 0.39%; the LDH release cytotoxicity (0.3162278 µM) is -1.8 ± 0.68%; the LDH release cytotoxicity (1 µM) was -1.82 ± 0.63%; the LDH release cytotoxicity (3.16228 µM) was -1.41 ± 0.12%; the LDH release cytotoxicity (10 µM) was -1.21 ± 0.066%. The LDH release cytotoxicity is -0.893 ± 0.14% (31.6228 µM) and 5.44 ± 2.7% (100 µM).
Take `CN(C)c1ccc(N=NS(=O)(=O)O)cc1` [Fenaminosulf]: the LDH release cytotoxicity (0.03162 µM) is -1.38 ± 0.17%; the LDH release cytotoxicity (0.1 µM) is -1.18 ± 1.2%; the LDH release cytotoxicity (0.3162278 µM) is -1.97 ± 0.02%; the LDH release cytotoxicity (1 µM) was -2.42 ± 0.11%; the LDH release cytotoxicity (3.16228 µM) is -2.64 ± 0.11%; the LDH release cytotoxicity (10 µM) is -3.4 ± 0.27%. Also, the LDH release cytotoxicity by setting is: (31.6228 µM) -3.39 ± 0.36%; (100 µM) -3.64 ± 0.36%.
With `CCN(CC)CCO` [N,N-Diethylethanolamine], the LDH release cytotoxicity was -0.085 ± 0.14% (0.03162 µM); -0.79 ± 0.26% (0.1 µM); -0.301 ± 0.27% (0.3162278 µM); -0.496 ± 0.54% (1 µM); -0.856 ± 0.15% (3.16228 µM); -0.12 ± 0.4% (10 µM). Also, the LDH release cytotoxicity is, setting by setting: (31.6228 µM) 0.244 ± 0.28%; (100 µM) 1.74 ± 0.11%.
`ClC1=C(Cl)C2(Cl)C3C(Cl)C(Cl)CC3C1(Cl)C2(Cl)Cl` (centres undefined) [Chlordane]: the LDH release cytotoxicity was -0.889 ± 1.7% (0.03162 µM); -0.0312 ± 0.73% (0.1 µM); -1.4 ± 0.067% (0.3162278 µM); -2.2 ± 0.83% (1 µM); -1.5 ± 0.36% (3.16228 µM); -0.57 ± 0.073% (10 µM). In addition, the LDH release cytotoxicity by setting is: (31.6228 µM) -0.758 ± 0.6%; (100 µM) 12 ± 4.7%.
As for `O=c1c(-c2ccc(O)cc2)coc2cc(O)cc(O)c12` [Genistein], the LDH release cytotoxicity reads like this: (0.03162 µM) -1.15 ± 0.87%; (0.1 µM) 0.689 ± 1.7%; (0.3162278 µM) -2.06 ± 0.49%; (1 µM) -1.48 ± 0.77%; (3.16228 µM) -1.52 ± 0.039%; (10 µM) -1.28 ± 0.36%. Further, the LDH release cytotoxicity is -1.5 ± 0.3% (31.6228 µM) and 1.33 ± 0.27% (100 µM).
For the compound `COC(=O)CSc1cc(N=c2sc(=O)n3n2CCCC3)c(F)cc1Cl` [Fluthiacet-methyl], the LDH release cytotoxicity (0.03162 µM) was -1.78 ± 1.1%; the LDH release cytotoxicity (0.1 µM) is -2.67 ± 1%; the LDH release cytotoxicity (0.3162278 µM) is -1.91 ± 1%; the LDH release cytotoxicity (1 µM) is -1.73 ± 0.018%; the LDH release cytotoxicity (3.16228 µM) is -1.61 ± 0.37%; the LDH release cytotoxicity (10 µM) is -1.57 ± 0.3%. In addition, the LDH release cytotoxicity is -0.786 ± 0.091% (31.6228 µM) and 0.903 ± 0.25% (100 µM).
In the case of `CC(O)CO` (centres undefined) [1,2-Propylene glycol], the LDH release cytotoxicity runs as follows: (0.03162 µM) -1.3 ± 0.42%; (0.1 µM) -0.939 ± 1.1%; (0.3162278 µM) -1.49 ± 0.33%; (1 µM) -1.94 ± 0.42%; (3.16228 µM) -1.55 ± 0.095%; (10 µM) -1.06 ± 0.055%. In addition, the LDH release cytotoxicity is, setting by setting: (31.6228 µM) -1.08 ± 0.23%; (100 µM) 0.548 ± 0.21%.
Consider `CC(=O)SC(C(=O)NC1Cc2ccccc2C2CCCC(C(=O)O)N2C1=O)C(C)C` (centres undefined) [Ilepatril], for which the LDH release cytotoxicity is -3.01 ± 0.96% (0.03162 µM); -3.51 ± 0.86% (0.1 µM); -2.73 ± 1.2% (0.3162278 µM); -2.08 ± 0.5% (1 µM); -2.73 ± 0.96% (3.16228 µM); -1.99 ± 0.38% (10 µM). For the same compound, the LDH release cytotoxicity by setting is: (31.6228 µM) -1.05 ± 0.81%; (100 µM) -0.123 ± 0.4%.
Turning to `Nc1ccc(Nc2ccccc2)cc1` [N-Phenyl-1,4-benzenediamine], the LDH release cytotoxicity (0.03162 µM) is -1.18 ± 0.34%; the LDH release cytotoxicity (0.1 µM) is -0.818 ± 0.15%; the LDH release cytotoxicity (0.3162278 µM) was -1.06 ± 0.022%; the LDH release cytotoxicity (1 µM) is -0.838 ± 1.2%; the LDH release cytotoxicity (3.16228 µM) was -0.438 ± 0.59%; the LDH release cytotoxicity (10 µM) was -0.107 ± 0.88%. Also, the LDH release cytotoxicity is, setting by setting: (31.6228 µM) 1.04 ± 0.016%; (100 µM) 3.97 ± 0.91%.
Turning to `CCOc1cc(Oc2ccc(C(F)(F)F)cc2Cl)ccc1[N+](=O)[O-]` [Oxyfluorfen], the LDH release cytotoxicity is -0.516 ± 0.33% (0.03162 µM); 0.229 ± 1.1% (0.1 µM); -0.848 ± 0.08% (0.3162278 µM); -0.859 ± 0.59% (1 µM); -0.159 ± 0.1% (3.16228 µM); -0.932 ± 0.39% (10 µM). Also, the LDH release cytotoxicity is, setting by setting: (31.6228 µM) -2.53 ± 0.26%; (100 µM) -1.47 ± 0.42%.
As to `O=c1[nH]c2ccc(S(=O)CCN3CCC(Cc4ccc(F)cc4)CC3)cc2o1` (centres undefined) [Besonprodil], the LDH release cytotoxicity (0.03162 µM) is -2.69 ± 1.3%; the LDH release cytotoxicity (0.1 µM) is -1.42 ± 0.9%; the LDH release cytotoxicity (0.3162278 µM) was -1.87 ± 0.18%; the LDH release cytotoxicity (1 µM) is -0.983 ± 0.15%; the LDH release cytotoxicity (3.16228 µM) was -0.767 ± 0.42%; the LDH release cytotoxicity (10 µM) is -1.16 ± 0.83%. Moreover, the LDH release cytotoxicity (31.6228 µM) was -1.7 ± 0.064% and the LDH release cytotoxicity (100 µM) worked out at 2.32 ± 2.9%.
As to `CC(C)(OO)c1ccccc1` [Cumene hydroperoxide], the LDH release cytotoxicity reads like this: (0.03162 µM) -1.39 ± 0.22%; (0.1 µM) 0.0774 ± 0.7%; (0.3162278 µM) -0.106 ± 0.65%; (1 µM) -0.2 ± 0.59%; (3.16228 µM) 0.797 ± 0.57%; (10 µM) 0.939 ± 1.3%. Moreover, the LDH release cytotoxicity runs as follows: (31.6228 µM) 0.476 ± 0.51%; (100 µM) 1.68 ± 0.062%.
Take `CC(=O)OCCC(C)C` [3-Methylbutyl acetate]: the LDH release cytotoxicity runs as follows: (0.03162 µM) -1.61 ± 1.2%; (0.1 µM) -1.62 ± 0.34%; (0.3162278 µM) -0.432 ± 0.2%; (1 µM) -1.89 ± 0.41%; (3.16228 µM) -0.737 ± 0.29%; (10 µM) 0.266 ± 1.3%. Moreover, the LDH release cytotoxicity was determined as 1.88 ± 0.52% (31.6228 µM) and 2.4 ± 0.52% (100 µM).
